Measurements as given in US4789675A, “1,4-benzoxazine derivatives and pharmaceutical use” (priority 1986, dated 1988).

Columns and labels:
[1] = system: caffeine-induced contraction of rabbit aorta strip depending on intracellular Ca^++; test: Intracellular Ca++ antagonism: inhibition of caffeine-induced contraction of aorta strip in Ca-free/EGTA solution; settings: Oryctolagus cuniculus, caffeine 20 mM, Ca++ 0 mM, EGTA 5 mM, read-out: Inhibitory percent (caffeine contraction); for inhibition at 10 µM: compound 10^-5 M
Procedure: A spiral strip of aorta of a rabbit (2 to 3 mm width, aobut 3 cm length) was allowed to equilibrate by hanging under 2 g force in a Krebs-Henseleitsolution. The solution was saturated with a mixture gas of 97% O2 -3% CO2, which was warmed to 37° C. The strip was moved into another Krebs-Henseleit solution containing Ca^++ OmM and EGTA 5 mM. Five minutes later, caffeine (20 mM) was added to the solution. The resulting contraction of the strip was made as the index of the contraction depending on intracellular Ca^++.

[2] = system: ischemia-reperfusion-induced ventricular arrhythmia in rats; test: Effect on the ischemia-reperfusion-induced ventricular arrhythmia in rats; format: in vivo, rat; settings: 3, 10, and 20 mg/kg given orally
Procedure: Male Sprague-Dawley rats, 9 to 10 week old, were orally given the compounds or tap water at a volume of 5 ml/kg. After one hour, the animals were anesthetized with sodium pentobarbital (50 mg/kg, by intraperitoneal injection), and they were subjected to thoractomy under artificial respiration, and the left anterior descending coronary artery was occluded for five minutes. The incidences of ventricular tachycardia, ventricular fibrilation and cardiac arrest for ten minutes after reperfusion of the blood were calculated.

[3] = system: acute renal failure in rats; test: Effect on acute renal failure in rats (plasma urea nitrogen, BUN); format: in vivo, rat; settings: 1, 3 and 10 mg/kg given orally
Procedure: Male sprague-Dawley rats, 6 week old, were orally given the compunds or tap water at a volume of 5 ml/kg. After one hour, the animals were anesthetized with sodium pentobarbital. The animals were subjected to laparotomy, and the left renal artery was clamped completely for one hour. The clamp was undone, and the incision was closed. The animals were again given orally the compounds or tap water 20 hours later. Further four hours later, the animals were again anesthetized, and the blood was obtained from the abdominal aorta. The plasma was separated for measurement of urea nitrogen (BUN).

[4] = Acute toxicity (oral, 7 days observation); settings: rat, in vivo, male rats, five animals/group, seven days
Source text: Male Wister rats aged five weeks (five animals/group) were orally given the test compounds (Example No. 1, 14, 15 and 18) suspended in a 5% solution of gum arabic. Each animal so treated was observed over a period of seven days.

intracellular Ca^++ = settings: (2) Ca++ liberated from intracellular store; (3) influx through receptor-operated channel; cited from earlier work
[5] = cited from earlier work
[6] = in vivo; cited from earlier work

| Compound | inhibition at 10 µM [1] | action on intracellular Ca++ (intracellular Ca^++) | side effects [6] | other results |
| --- | --- | --- | --- | --- |
| O=C1Nc2cc3c(cc2OC1CCCN1CCN(c2ccc(F)cc2)CC1)CCCC3 (stereo not shown) [Example 1, 2-{3-[4-(4-fluorophenyl)-1-piperazinyl]propyl}-6,7,8,9-tetrahydro-2H-naphtho[2,3-b][1,4]oxazin-3(4H)-one] | 87% | – | – | inhibition at 1 µM ([1]; compound 10^-6 M): 60%; incidences of cardiac functional abnormalities [2]: inhibited the incidences of cardiac functional abnormalities in a dose-dependent manner; increase in BUN [3]: inhibited the increase in BUN; LD50 at 168 h [4]: ≥ 300 mg/kg |
| NCCCCCCNS(=O)(=O)c1cccc2c(Cl)cccc12 [Example W-7] | – | weak in action | – | – |
| CCN(CC)CCCCCCCCOC(=O)c1cc(OC)c(OC)c(OC)c1 [TMB-8] | 48% | weak in action | – | antihypertensive action in vivo [5]: do not display antihypertensive action in vivo |
| COC(=O)C1=C(C)NC(C)=C(C(=O)OC)C1c1ccccc1[N+](=O)[O-] [nifedipine] | – | hardly acts on (2) and (3) | – | – |
| COc1cc2nc(N3CCN(C(=O)c4ccco4)CC3)nc(N)c2cc1OC [prazosin] | – | – | orthostatic hypotension often observed | – |
| CN1CCN(CCCN2c3ccccc3Sc3ccc(C(F)(F)F)cc32)CC1 [trifluoperazine] | – | showing antagonism against intracellular Ca^++ | side effects e.g. on the central nervous system | – |
